Measurements as given in patent publication US10273248B2, “Glucose uptake inhibitors” (Kadmon Corporation LLC, priority 2015, dated 2019).
Like-named read-outs stand apart in the source and are kept apart here.

Experiments:
[1] = system: HT1080 cells; assay type: cell-based
Experimental: (§1) Cell Proliferation and Cell Death Assays:
(§2) HT1080 cells (or other cell types) were plated in 96-well format at cell densities suitable for culture from 24-72 hrs. For IC50 of cellular proliferation, cells were fixed with TCA and stained with SRB to quantify relative viability. At the end of the specified assay time, the percentage of drug-treated cells was calculated relative to the DMSO control. For cell death assays, viability was assessed relative to the 0-hour timepoint

[2] = system: HT1080 cells; assay: Cell proliferation assay, single agents and combinations, HT1080; assay type: cell-based; conditions: Homo sapiens; HT-1080 cells; read-out: IC50 as a single agent
Experimental: as §1, §2

[3] = system: MOLT-4; assay: Proliferation assay, MOLT-4; assay type: cell-based; conditions: Homo sapiens, 72 hrs
Experimental: (§3) As previously discussed, glucose is the major energy source for cancer cells and, compared to normal cells, cancer cells rely on increased rates of glycolysis for survival and cell growth. […] Table 2 summarizes these findings for multiple compounds:
as §1, §2

[4] = system: Jurkat; assay: Proliferation assay, Jurkat; assay type: cell-based; conditions: Homo sapiens, 72 hrs
Experimental: as §3, §1, §2

[5] = system: glycolysis in HT1080 cells; assay: Glycolysis assay: oligomycin plus compound, cellular ATP by Cell Titer Glo; assay type: cell-based; conditions: Homo sapiens, HT-1080, 1 h, 10 μM oligomycin, one hour, class symbols
Outline: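 Confluent HT1080 cells treated 1 h with compound plus 10 μM oligomycin to block mitochondrial ATP, so remaining ATP reflects glycolysis. Cellular ATP read by Cell Titer-Glo luminescence; IC50 derived from dose-response curves.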

[6] = system: U937; assay: Proliferation assay, U937; assay type: cell-based; conditions: Homo sapiens, U-937; 72 hrs
Experimental: as §3, §1, §2

[7] = system: MOG-induced experimental autoimmune encephalitis (EAE); assay: Mouse prophylactic MOG-EAE model; assay type: in vivo; conditions: dosed orally day 3 to day 25, compared to vehicle control (FIG. 9)
Experimental: Mouse Prophylactic MOG-EAE Model:
Performed at Hooke laboratories. Briefly, mice were immunized with MOG peptide on day 0 and subsequently injected with pertussis toxin. Compounds were dosed orally beginning on day 3 continuing until day 25.

[8] = HT1080 cells, 10 μM Ex. 31 or 25 μM H2O2

Which “cell death as single agents” value ([1]; HT-1080 cells) does the source give for `CN(C)CC[C@H](CSc1ccccc1)Nc1ccc(S(=O)(=O)NC(=O)c2ccc(N3CCN(Cc4ccccc4-c4ccc(Cl)cc4)CC3)cc2)cc1[N+](=O)[O-]` [ABT-737, reference compound] here?
Its value is “neither Ex. 31 nor ABT-737 (10 M) caused cell death”.

And the IC50 [2]?
The IC50 was roughly 8500 nM.

Which IC50 [3] does the source give for `CC(C)NC(=O)COc1cccc(-c2nc3c(c(Nc4ccc(-c5cn[nH]c5)cc4)n2)COC3)c1` [Example 1, 2-(3-(4-((4-(1H-pyrazol-4-yl)phenyl)amino)-5,7-dihydrofuro[3,4-d]pyrimidin-2-yl)phenoxy)-N-isopropylacetamide] here?
Its IC50 is 1620 nM.

And the IC50 [4]?
The IC50 was 630 nM.

And the IC50 [5]?
The IC50 was 10 to 100 nM.

Which IC50 [4] does the source give for `CC(C)NC(=O)COc1cccc(-c2nc(Nc3ccc(-c4cn[nH]c4)cc3)c3ncn(C)c3n2)c1` [Example 5, 2-(3-(6-((4-(1H-pyrazol-4-yl)phenyl)amino)-9-methyl-9H-purin-2-yl)phenoxy)-N-isopropylacetamide] here?
The IC50 was 397 nM.

What about the IC50 [5] of the same molecule?
Its IC50 is 251 to 500 nM.

For `CC(C)NC(=O)COc1cccc(-c2nc(Nc3ccc(-c4cn[nH]c4)cc3)c3sccc3n2)c1` [Example 7, 2-(3-(4-((4-(1H-pyrazol-4-yl)phenyl)amino)thieno[3,2-d]pyrimidin-2-yl)phenoxy)-N-isopropylacetamide], which IC50 [6] is on record?
The IC50 was 388 nM.

And the IC50 [3]?
The IC50 was 823 nM.

What about the IC50 [4] of the same molecule?
The IC50 was 500 nM.

What about the “onset and end clinical score” value [7] of the same molecule?
Its value is “either delayed the onset or lowered the end clinical score”.

What about the IC50 [5] of the same molecule?
The IC50 was 10 to 100 nM.

Which results are given for `O=C(COc1cccc(-c2nc(Nc3ccc(-c4cn[nH]c4)cc3)c3occc3n2)c1)NC1CC1` [Example 21]?
IC50 [4]: 9400 nM; IC50 [5]: 501 to 1000 nM

With `O=C(COc1cccc(-c2nc(Nc3ccc(-c4cn[nH]c4)cc3)c3sccc3n2)c1)NC1CCC1` [Example 23] as the molecule, how does the IC50 [4] read?
Its IC50 is 162 nM.

And the IC50 [5]?
Its IC50 is 101 to 250 nM.

For `O=C(COc1cccc(-c2nc(Nc3ccc(-c4cn[nH]c4)cc3)c3sccc3n2)c1)NC1CCCC1` [Example 24], which IC50 [6] is on record?
The IC50 was 234 nM.

And the IC50 [3]?
The IC50 was 417 nM.

And the IC50 [4]?
Its IC50 is 216 nM.

What about the IC50 [5] of the same molecule?
Its IC50 is 10 to 100 nM.

With `O=C(COc1cccc(-c2nc3c(c(Nc4ccc(-c5cn[nH]c5)cc4)n2)COC3)c1)NC1CCC1` [Example 31] as the molecule, how does the IC50 [6] read?
The IC50 was 256 nM.

And the IC50 [3]?
The IC50 was 385 nM.

And the IC50 [4]?
The IC50 was 294 nM.

And the “cell death, combination with H2O2” value ([1]; HT1080 cells, 10 μM Ex. 31 + 25 μM H2O2 (FIG. 5B))?
The value was roughly 45%.

And the “cell death as single agents” value [1, 8]?
The value was “neither 10 μM Ex. 31 nor 25 μM H2O2 caused cell death”.

And the “cell death as single agents” value ([1]; HT-1080 cells)?
Its value is “neither Ex. 31 nor ABT-737 (10 M) caused cell death”.

What about the “cell death, combination with ABT-737” value ([1]; HT-1080 cells, 72 hours, Ex. 31 + ABT-737 (FIG. 4B)) of the same molecule?
The value was roughly 60%.

And the IC50 [5]?
Its IC50 is 10 to 100 nM.

What does the source list for `O=C(COc1cccc(-c2nc3c(c(Nc4ccc(-c5cn[nH]c5)cc4)n2)COC3)c1)NC1CCCC1` [Example 32]?
IC50 [6]: 123 nM; IC50 [3]: 264 nM; IC50 [4]: 170 nM; IC50 [5]: 10 to 100 nM

`OO` [Example H2O2, H2O2, reference compound] was tested. Which “cell death as single agents” value [1, 8] did it give?
The value was “neither 10 μM Ex. 31 nor 25 μM H2O2 caused cell death”.
